Consider 23 compounds from US6413947B1, “Anilide derivative, production and use thereof” (Takeda Chemical Industries, Ltd., priority 1997, dated 2002).

A word on the melting point: it is the temperature of the solid-liquid transition. `Cc1ccc(-c2ccc3c(c2)C=C(C(=O)Nc2ccc(C(=O)C4CCCCN4)cc2)CCO3)cc1` (centres unmarked) [Compound 156, N-(4—(piperidin-2-ylcarbonyl)phenyl)-7—(4-methylphenyl)-2,3-dihydro-1-benzoxepine-4-carboxamide]: the melting point was 195 to 196 °C (dec.). As for `Cc1ccc(-c2ccc3c(c2)C=C(C(=O)Nc2ccc(-c4ccccn4)cc2)CCO3)cc1` [Compound 159, N-[4—(2-pyridyl)phenyl]-7—(4-methylphenyl)-2,3-dihydro-1-benzoxepine-4-carboxamide], the melting point was 228 to 229 °C.

Take `Cc1ccc(-c2ccc3c(c2)C=C(C(=O)Nc2ccc(-c4cccc[n+]4[O-])cc2)CCO3)cc1` [Compound 160, N-[4—(1-oxidopyridin-2-yl)phenyl]-7—(4-methylphenyl)-2,3-dihydro-1-benzoxepine-4-carboxamide]: the melting point is 254 °C (dec.). Turning to `Cc1ccc(-c2ccc3c(c2)C=C(C(=O)Nc2ccc(Cc4ccccn4)cc2)CCO3)cc1` [Compound 161, N-[4—(2-pyridylmethyl)phenyl]-7—(4-methylphenyl)-2,3-dihydro-1-benzoxepine-4-carboxamide], the melting point is 189 to 190 °C.

For `Cc1ccc(-c2ccc3c(c2)C=C(C(=O)Nc2ccc(Cc4cccc[n+]4[O-])cc2)CCO3)cc1` [Compound 162, N-[4—(1-oxidopyridin-2-ylmethyl)phenyl]-7—(4-methylphenyl)-2,3-dihydro-1-benzoxepine-4-carboxamide], the melting point is 188 to 190 °C. Compound `CCP(=O)(CC)Cc1ccc(NC(=O)C2=Cc3cc(-c4ccc(C)cc4)ccc3OCC2)cc1` [Compound 163, N-(4-diethylphosphorylmethylphenyl)-7—(4-methylphenyl)-2,3-dihydro-1-benzoxepine-4-carboxamide] gave a melting point of 240 to 241 °C.

Take `Cc1ccc(-c2ccc3c(c2)C=C(C(=O)Nc2ccc(-c4cccnc4)cc2)CCO3)cc1` [Compound 164, N-[4—(3-pyridyl)phenyl]-7—(4-methylphenyl)-2,3-dihydro-1-benzoxepine-4-carboxamide]: the melting point lay in the range of 214 to 216 °C. On to `Cc1ccc(-c2ccc3c(c2)C=C(C(=O)Nc2ccc(-c4ccc[n+]([O-])c4)cc2)CCO3)cc1` [Compound 165, N-[4—(1-oxidopyridin-3-yl)phenyl]-7—(4-methylphenyl)-2,3-dihydro-1-benzoxepine-4-carboxamide], for which the melting point is 262 °C (dec.). The compound `Cc1ccc(-c2ccc3c(c2)C=C(C(=O)Nc2ccc(C(O)c4ccccn4)cc2)CCO3)cc1` (centres unmarked) [Compound 166, N-[4-[hydroxy(2-pyridyl)-methyl]phenyl]-7—(4-methylphenyl)-2,3-dihydro-1-benzoxepine-4-carboxamide] gave a melting point of 215 to 217 °C. As to `Cc1ccc(-c2ccc3c(c2)C=C(C(=O)Nc2ccc(C(O)c4cccc[n+]4[O-])cc2)CCO3)cc1` (centres unmarked) [Compound 167, N-[4-[hydroxy(1-oxidopyridin-2-yl)methyl]phenyl]-7—(4-methylphenyl)-2,3-dihydro-1-benzoxepine-4-carboxamide], the melting point was 208 to 210 °C. With `CCCP(=O)(CCC)Cc1ccc(NC(=O)C2=Cc3cc(-c4ccc(C)cc4)ccc3OCC2)cc1` [Compound 168, N-(4-dipropylphosphorylmethylphenyl)-7—(4-methylphenyl)-2,3-dihydro-1-benzoxepine-4-carboxamide], the melting point fell in the range of 219 to 220 °C. To `COc1cccnc1C(O)c1ccc(NC(=O)C2=Cc3cc(-c4ccc(C)cc4)ccc3OCC2)cc1` (centres unmarked) [Compound 169, N-[4-[hydroxy(3-methoxy-pyridin-2-yl)methyl]phenyl]-7—(4-methylphenyl)-2,3-dihydro-1-benzoxepine-4-carboxamide] belongs 232 to 233 °C; to `COc1ccc[n+]([O-])c1C(O)c1ccc(NC(=O)C2=Cc3cc(-c4ccc(C)cc4)ccc3OCC2)cc1` (centres unmarked) [Compound 170, N-[4-[hydroxy(3-methoxy-1-oxidopyridin-2-yl)methyl]phenyl]-7—(4-methylphenyl)-2,3-dihydro-1-benzoxepine-4-carboxamide], 242 °C (dec.). For the compound `COCOc1ccc[n+]([O-])c1Cc1ccc(NC(=O)C2=Cc3cc(-c4ccc(C)cc4)ccc3OCC2)cc1` [Compound 173, N-[4—(1-oxido-3-methoxymethoxypyridin-2-ylmethyl)phenyl]-7—(4-methylphenyl)-2,3-dihydro-1-benzoxepine-4-carboxamide], the melting point was 206 to 208 °C.

The compound `Cc1ccc(-c2ccc3c(c2)C=C(C(=O)Nc2ccc(Cc4ncccc4O)cc2)CCO3)cc1` [Compound 174, N-[4—(3-hydroxypyridin-2-ylmethyl)phenyl]-7—(4-methylphenyl)-2,3-dihydro-1-benzoxepine-4-carboxamide] had a melting point of 285 to 288 °C. `Cc1ccc(-c2ccc3c(c2)C=C(C(=O)Nc2ccc(Cc4c(O)ccc[n+]4[O-])cc2)CCO3)cc1` [Compound 175, N-[4—(1-oxido-3-hydroxypyridin-2-ylmethyl)phenyl]-7—(4-methylphenyl)-2,3-dihydro-1-benzoxepine-4-carboxamide]: the melting point was 254 °C (dec.). As for `CCc1ccc(-c2ccc3c(c2)C=C(C(=O)Nc2ccc(CN(C)C4CCOCC4)cc2)CCO3)cc1` [Compound 177, N-[4-[N-methyl-N-(tetrahydropyran-4-yl)aminomethyl]phenyl]-7—(4-ethylphenyl)-2,3-dihydro-1-benzoxepine-4-carboxamide], the melting point was 181 to 182 °C.

Regarding `CN(Cc1ccc(NC(=O)C2=Cc3cc(-c4ccc(C(C)(C)C)cc4)ccc3OCC2)cc1)C1CCOCC1` [Compound 179, N-[4-[N-methyl-N-(tetrahydropyran-4-yl)aminomethyl]phenyl]-7—(4-tert-butylphenyl)-2,3-dihydro-1-benzoxepine-4-carboxamide], the melting point lay within 193 to 194 °C. In turn, `CN(Cc1ccc(NC(=O)C2=Cc3cc(-c4ccc(Cl)cc4)ccc3OCC2)cc1)C1CCOCC1` [Compound 181, N-[4-[N-methyl-N-(tetrahydropyran-4-yl)aminomethyl]-phenyl]-7—(4-chlorophenyl)-2,3-dihydro-1-benzoxepine-4-carboxamide] displayed a melting point of 191 to 192 °C. The same measure for `CCOc1ccc(-c2ccc3c(c2)C=C(C(=O)Nc2ccc(CN(C)C4CCOCC4)cc2)CCO3)cc1` [Compound 185, 7—(4-ethoxyphenyl)-N-(4-[N-methyl-N-(tetrahydropyran-4-yl)aminomethyl]phenyl]-2,3-dihydro-1-benzoxepine-4-carboxamide]: 174 to 176 °C; for `CN(Cc1ccc(NC(=O)C2=Cc3cc(-c4ccc(OC(F)(F)F)cc4)ccc3OCC2)cc1)C1CCOCC1` [Compound 186, N-[4-[N-methyl-N-(tetrahydropyran-4-yl)aminomethyl]phenyl]-7—(4-trifluoromethoxyphenyl)-2,3-dihydro-1-benzoxepine-4-carboxamide]: 187 to 188 °C; for `CCP(=O)(CC)Cc1ccc(NC(=O)/C=C/c2cccc(-c3ccc(C)cc3)c2)cc1` [Compound 187, (E)-N-(4-diethylphosphorylmethylphenyl)-3—(4-methylphenyl)cinnamamide]: 197 to 198 °C.

`Cc1ccc(-c2cccc(/C=C/C(=O)Nc3ccc(-c4ccccn4)cc3)c2)cc1` [Compound 188, (E)-N-[4—(2-pyridyl)phenyl]-3—(4-methylphenyl)cinnamamide] gave a melting point of 220 to 222 °C.
